The structures appear in SMILES notation.

A short description of data set [1]: water solubility of free base and salts of compound 3. The format is physicochemical. On the procedure:
(§1) In an exemplary embodiment, the solubility of the free base form of compound 3 in THF, DMSO and DMF was high but the solubility in group 3 solvents, including water for example, was low. For example, acetone is needed to dissolve the free base at 50° C. […] HCl, phosphoric acid, tartaric acid, acetic acid, D-, L-glucoronic acid and succinic acid were used to prepare pharmaceutically acceptable salts of compound 3. One crystalline form of compound 3 as a mono-succinate salt and five crystalline polymorphs of compound 3 as a hemi-succinate salt are provided in the Examples.

Data set [2] in a line: solubility of free base in organic solvents / group 3 solvents. The data set is classed as physicochemical. The settings on record: free base form. As for the experimental part: as §1

As to `COc1ccc(-c2ccnc(Nc3ccc(S(=O)(=O)NCCCN(C)C)cc3)n2)cc1F` [compound 3], the Solubility in water entry in data set [1] (free base, thermogravimeteric method) is “not detectable”. Further, the “solubility in DMF” value in data set [2] (DMF) is “high”. The “solubility in DMSO” value in data set [2] (DMSO) was “high”. For the same molecule, the “solubility in THF” value in data set [2] (THF) is “high”. Moreover, the “solubility in group 3 solvents, including water” value in data set [2] (group 3 solvents, including water) is recorded as “low”.
In the case of `COc1ccc(-c2ccnc(Nc3ccc(S(=O)(=O)NCCCN(C)C)cc3)n2)cc1F.O=C(O)CCC(=O)O` [mono-succinate, N-(3-(dimethylamino)propyl)-4-(4-(3-fluoro-4-methoxyphenyl)pyrimidin-2-ylamino)benzenesulfonamide], the solubility in data set [1] (thermodynamic from solid, in water) stood at 1100 µg/mL.

Source of the values: patent US20080275073A1, “CRYSTALLINE FORMS AND POLYMORPHS OF N-(3-(DIMETHYLAMINO)PROPYL)-4-(4-(3-FLUORO-4-METHOXYPHENYL) PYRIMIDIN-2-YLAMINO) BENZENESULFONAMIDE AS PHARMACEUTICALLY ACCEPTABLE SALTS” (Wyeth, priority 2007, published 2008).
